The values below come from patent US10159685B2, “Vascular calcification” (Cambridge Enterprise Limited, priority 2016, dated 2018).

Holding throughout (type): cell-based
In data set [1] the test system is bovine vascular smooth muscle cells (bVSMCs). The following applies: 7 days; for Cell viability of bVSMCs after seven days (MTT signal, relative to control): mean of three experiments; for Toxicity to bVSMCs (MTT assay, in words): at the concentrations tested (0.5 to 100 μM). As to the method:
The toxicity of the identified compounds to bovine VSMCs was measured using the MTT assay, which measures the activity of dehydrogenase enzymes of live cells. This assay can pick up both cell death and proliferation.
Bovine VSMCs were seeded in 96 well plates and cultured in M199/20% FCS for 1 day. Then, the cells were incubated with inhibitor concentrations from 0.5 to 100 μM (in M199 medium+5% FBS). The cells were incubated with the inhibitors for 7 days; every 2-3 days the medium −/+inhibitors was exchanged. Then, the MTT assay was performed. The stock vehicle DMSO was tested at corresponding concentrations to the inhibitors at 0.1% DMSO or less.

For data set [2] the test system is unchanged. Description: o-Cresolphthalein Ca2+ assay, bVSMC GAD calcification model (Examples 4 and 5). The settings on record: GAD-treated bVSMCs, 10 μM, 7 d. The procedure:
For the bVSMCs a GAD medium (10 mM β-glycerophosphate/0.1 mM L-ascorbic acid-2-phosphate/10 nM dexamethasone) model was used to induce mineralization in bVSMCs. Accordingly, cells were seeded in tissue culture plates using M199/20% FCS culture medium and cultured overnight. The next day, cells were treated either with medium only (M199/5% FBS)+/−inhibitors, or with the GAD-medium (10 mM β-glycerophosphate/0.1 mM L-ascorbic acid-2-phosphate/[…] dexamethasone)+/−inhibitors.
Medium+/−inhibitors was exchanged every 2-3 days. […]
The o-Cresolphthalein assay is a spectrophotometric method for measuring Ca^2+-concentrations in cell/tissue lysates. Following the calcification experiments, cells are briefly washed to remove medium and 100 […]1 of 0.1 N HCl is added to each well to dissolve any mineral deposits. Then, the Ca^2+-concentration of the samples is measured spectrophotometrically (at 570 nm) in the o-cresolphthalein assay with the help of a CaCl2 standard curve in a concentration range of ˜0.02-270 µg Ca^2+/ml.
The commercial BioRad DC protein assay is based on the Lowry method, aka reaction of proteins with a copper-tartrate complex and subsequent reaction with Folin's reagent. Following the calcification experiment, cells are briefly washed to remove medium and 100 µl of solubilisation solution (0.1 M NaOH/1% SDS/DIW) is added to each well to lyse the cells. The protein concentrations of the lysates are subsequently determined in the BioRad DC assay as per supplier's instructions using BSA (bovine serum albumin) as standard.
The in vitro model is the same as the model used in example 4; bovine vascular smooth muscle cells (bVSMCs) cultured so that they produce extracellular matrix, with the addition of the GAD medium (10 mM β-glycerophosphate/0.1 mM L-ascorbic acid-2-phosphate/10 nM dexamethasone).
As above, cells were treated either with medium only (“no-additions”; NA)+/−inhibitors, or with the GAD-medium+/−inhibitors. The inhibitors used were PJ34 and minocyclin (MC) at 10 μM, 1 μM and 0.1 μM.
The methodology was the same as that described in example 4.

Data set [3] relates to human monocyte-macrophages (HMMs). Nature of the data set: MTT toxicity assay, HMMs, seven days (Example 3). The following applies: 7 days; for Cell viability by MTT, percent of control: mean of three experiments; for Toxicity to HMMs (in words): at a concentration of 100 μM. Background: Tetrazolium dyes change colour on reduction, which living cells bring about.
Description: A similar set of toxicity experiments was performed with human monocyte-macrophages (HMMs).
Data set [4] has as its system human vascular smooth muscle cells (hVSMCs). Description: o-Cresolphthalein Ca2+ assay, hVSMC Ca/P calcification model (Examples 7-9). The settings on record: hVSMCs, 8 days, concentrations between 0.05 μM and 3 μM. The procedure:
Primary hVSMCs were cultured in M199 media containing FBS (M199/5% FBS). They were plated at a known cell density, allowed to grow for 24 hours and then treated with control (DMSO only) or calcification media (DMSO containing 2.7 mM Calcium+2.5 mM phosphate)+/−inhibitors. After 6 days, calcification was assessed using the o-Cresolphthalein assay for quantification of Ca^2+ deposition and a BioRad protein assay for protein content.
Medium+/−inhibitors was exchanged every 2-3 days.
Primary hVSMCs were cultured in M199 media containing FBS (M199/5% FBS). They were plated at a known cell density, allowed to grow for 24 hours and then treated with control (DMSO only) or calcification media (DMSO containing 2.7 mM Calcium+2.5 mM phosphate)+/−inhibitors. After 8 days, calcification was assessed using o-Cresolphthalein assay for quantification of Ca^2+ deposition and a BioRad protein assay for protein content.
All of the compounds tested were used at a concentration of 3 μM. Medium+/−inhibitors was exchanged every 2-3 days.
Primary hVSMCs were cultured in M199 media containing FBS (M199/5% FBS). They were plated at a known cell density, allowed to grow for 24 hours and then treated with control (DMSO only) or calcification media (DMSO containing 2.7 mM Calcium+2.5 mM phosphate)+/−compounds. After 8 days, calcification was assessed using o-Cresolphthalein assay for quantification of Ca^2+ deposition and a BioRad protein assay for protein content.
These concentrations were chosen to mimic the systemic concentrations of these drugs following patient dosing according to the dose schedule in the prescribing information for each drug. Medium+/−inhibitors was exchanged every 2-3 days.

Where two headings read alike, the source gives them in different places. Marks after values point to notes of the source that are not given here.

In the case of `COc1ccccc1Oc1c(NS(=O)(=O)c2ccc(C(C)(C)C)cc2)nc(-c2ncccn2)nc1OCCO` [bosentan MH, Bosentan monohydrate], the “Cell viability of bVSMCs after seven days (MTT signal, relative to control)” value was 101.97 in data set [1] (0.5 uM); 96.12 in data set [1] (1 uM); 91.91* in data set [1] (2 uM); 93.05* in data set [1] (5 uM); 93.87* in data set [1] (10 uM); 97.20 in data set [1] (20 uM). The “Cell viability of bVSMCs after seven days (MTT signal, relative to control)” value in data set [1] (50 uM) is 103.69; in data set [1] (100 uM) it was 85.05*. Also, the “Toxicity to bVSMCs (MTT assay, in words)” value in data set [1] is given as “little toxicity”. Moreover, in data set [2], the “Calcium levels (mass of calcium, FIG. 7B) compared to no inhibitors” value was “no effect”. In addition, the “Normalised calcium levels (mass of calcium per mass of protein, FIG. 9B)” value in data set [2] is “slightly lower calcium levels”. The “Cell viability by MTT, percent of control” value in data set [3] (0.5 uM) is reported as 91.59; in data set [3] (1 uM), 99.82; in data set [3] (2 uM), 97.16; in data set [3] (5 uM), 84.90; in data set [3] (10 uM), 79.36; in data set [3] (20 uM) it was 83.25. For the same compound, the figures for the “Cell viability by MTT, percent of control” value in data set [3] (50 uM) and in data set [3] (100 uM) were 73.65 and 64.97*, respectively. For the same compound, in data set [3], the “Toxicity to HMMs (in words)” value is reported as “most toxic”. The “Inhibition of calcification, normalised results (FIG. 27)” value in data set [4] was “do not inhibit calcification”.
For the compound `CC(=O)CCCCn1c(=O)c2c(ncn2C)n(C)c1=O` [Pentoxifylline, pentoxifylline], the “Cell viability of bVSMCs after seven days (MTT signal, relative to control)” value in data set [1] (0.5 uM) is reported as 97.68; in data set [1] (1 uM) it was 95.91; in data set [1] (2 uM), 92.19*; in data set [1] (5 uM), 91.33*; in data set [1] (10 uM), 91.77*; in data set [1] (20 uM), 92.43*. Moreover, the “Cell viability of bVSMCs after seven days (MTT signal, relative to control)” value is 93.01* in data set [1] (50 uM) and 96.96 in data set [1] (100 uM). The “Toxicity to bVSMCs (MTT assay, in words)” value in data set [1] is listed as “virtually non-toxic”. In addition, in data set [2], the “Calcium levels (mass of calcium, FIG. 7B) compared to no inhibitors” value is listed as “no effect”. Also, in data set [2], the “Normalised calcium levels (mass of calcium per mass of protein, FIG. 9B)” value is “slightly lower calcium levels”. The “Cell viability by MTT, percent of control” value in data set [3] (0.5 uM) was 98.73; in data set [3] (1 uM), 90.57; in data set [3] (2 uM), 91.92; in data set [3] (5 uM), 107.27; in data set [3] (10 uM), 88.35; in data set [3] (20 uM) it was 93.54. For the same compound, the “Cell viability by MTT, percent of control” value in data set [3] (50 uM) is given as 89.28; in data set [3] (100 uM), 89.64. In addition, the “Toxicity to HMMs (in words)” value in data set [3] is listed as “relatively innocuous”. The “Inhibition of calcification, normalised results (FIG. 27)” value in data set [4] was “do not inhibit calcification”.
